# According to US10888576B2, “Composition of HMB and ATP and methods of use” (Metabolic Technologies, Inc., priority 2018, dated 2021):
# Tests used:
# Type in all cases: in vivo, human
# creatine kinase (CK) = assay: Serum creatine kinase (muscle damage), colorimetric; conditions: for effect on training-induced increase in CK: compared with placebo, initiation of training and overreaching cycle; for CK: Mean ± SEM
# Description: (§1) Prior to the study, participants were randomly assigned to receive either 3 g per day of HMB Free Acid (HMB) (combined with food-grade orange flavors and sweeteners), 400 mg per day of ATP (PEAK ATP®; TSI, Inc.), a combination of both 3 g of HMB and 400 mg per day of ATP, or a placebo (food-grade orange flavors and sweeteners) divided equally into three servings daily with the first serving given 30 minutes prior to exercise and the remaining two servings daily with the mid-day and evening meals. On the non-training days participants were instructed to consume one serving with each of three separate meals. The supplementation was continued daily throughout the training and testing protocols. Each serving was formulated with 1 gram of HMB free acid to account for fill and emptying variation and achieve a minimum effective dosage of 0.800 grams. This dosage would be equivalent to a 1 gram Ca-HMB dosage.
# (§2) All blood draws throughout the study were obtained via venipuncture after a 12-hour fast by a trained phlebotomist. Whole blood was collected and transferred into appropriate tubes for obtaining serum and plasma and centrifuged at 1,500 g for 15 min at 4° C. Resulting serum and plasma were then aliquoted and stored at −80° C. until subsequent analyses.
# (§3) Samples were thawed one time and analyzed in duplicate for each analyte. All blood draws were scheduled at the same time of day to negate confounding influences of diurnal hormonal variations. Serum total and free testosterone, cortisol, and C-reactive protein (CRP) were assayed via ELISA kits obtained from Diagnostic Systems Laboratories (Webster, Tex.). All hormones were measured in the same assay on the same day to avoid compounded interassay variance. […] Serum creatine kinase (CK) was measured using colorimetric procedures at 340 nm (Diagnostics Chemicals, Oxford, Conn.). Twenty-four hour urine collections were made and 3-methylhistine was determined by previously described methods (Rathmacher et al 1992 and Wilson et al, 2013).
# cortisol = assay: Serum cortisol ELISA; conditions: for effect on cortisol levels: during the study, vs placebo; for Cortisol: Mean ± SEM
# Description: as §1, §2, §3
# total testosterone = assay: Serum total testosterone ELISA; conditions: for effect on total testosterone: main effect; for Total Testosterone: Mean ± SEM
# Description: as §1, §2, §3
# resistance-trained males [1] = assay: Wingate test peak power (maximal cycling); conditions: for Wingate PP gains in power from baseline: after the first week of the increased training (overreaching); for Wingate PP decrease: during the 2-week overreaching cycle
# Description: Muscle power was assessed during maximal cycling (Wingate Test) and jumping movements. During the cycling test, volunteers were instructed to cycle against a predetermined resistance (7.5% of body weight) as fast as possible for 10 seconds (36). The saddle height was adjusted to the individual's height to produce a 5-10° knee flexion while the foot was in the low position of the central void. A standardized verbal stimulus was provided to each participant. Power output was recorded in real time during the 10-second sprint test, by a computer connected to the standard cycle ergometer (Monark model 894e, Vansbro, Sweden). Peak power (PP) was recorded using Monark Anaerobic Wingate Software, Version 1.0 (Monark, Vansbro, Sweden). The ICC of muscle peak power was 0.96. Prior to the study, participants were randomly assigned to receive either 3 g per day of HMB Free Acid (HMB) (combined with food-grade orange flavors and sweeteners), 400 mg per day of ATP (PEAK ATP®; TSI, Inc.), a combination of both 3 g of HMB and 400 mg per day of ATP, or a placebo (food-grade orange flavors and sweeteners) divided equally into three servings daily with the first serving given 30 minutes prior to exercise and the remaining two servings daily with the mid-day and evening meals. On the non-training days participants were instructed to consume one serving with each of three separate meals. The supplementation was continued daily throughout the training and testing protocols. […] This dosage would be equivalent to a 1 gram Ca-HMB dosage. All participants performed a high volume resistance training protocol during the 12-week study. The phases of the study and measurements taken are shown in FIG. 1, and the exercise protocols for each phase of the study are shown in Tables 1 to 3. The training was divided into 3 phases, with Phase 1 consisting of daily undulating periodization (weeks 1 to 8), Phase 2 consisting of the overreaching cycle (weeks 9 and 10), and Phase 3 consisting of the taper cycle (weeks 11 and 12).
# resistance-trained males [2] = assay: Skeletal muscle hypertrophy: ultrasonography muscle thickness of quadriceps (VL and VI); conditions: for 12-week increases in quadriceps thicknesses: 12 weeks
# resistance-trained males [3] = assay: Body composition (weight, lean body mass, fat) by dual x-ray absorptiometry, 12-week resistance training study
# urinary 3-MH:Cr ratio = assay: 24 h urinary 3-methylhistidine:creatinine ratio (muscle protein degradation); conditions: Mean ± SEM
# Description: as §1, §3
# The rate of muscle protein degradation was evaluated by measuring urinary 3-MH:Cr ratio (Table 6).
structure (smiles),measurement,setting,value
"CC(C)(O)CC(=O)O [HMB-FA, β-hydroxy-β-methylbutyric acid]",effect on training-induced increase in CK,creatine kinase (CK),significantly attenuated the increase in CK
same,CK,creatine kinase (CK); week 0 (baseline),158 ± 16 IU/L
same,CK,creatine kinase (CK); week 1,322 ± 35 IU/L
same,CK,creatine kinase (CK); week 4,280 ± 22 IU/L
same,CK,creatine kinase (CK); week 8,255 ± 28 IU/L
same,CK,creatine kinase (CK); week 9 (overreaching),288 ± 18 IU/L
same,CK,creatine kinase (CK); week 10 (overreaching),250 ± 14 IU/L
same,CK,creatine kinase (CK); week 12,147 ± 15 IU/L
same,effect on cortisol levels,cortisol,decreased cortisol levels
same,Cortisol,cortisol; week 0 (baseline),21.5 ± 1.4 µg/dL
same,Cortisol,cortisol; week 1,20.3 ± 1.2 µg/dL
same,Cortisol,cortisol; week 4,20.9 ± 1.0 µg/dL
same,Cortisol,cortisol; week 8,18.8 ± 1.5 µg/dL
same,Cortisol,cortisol; week 9 (overreaching),19.6 ± 1.1 µg/dL
same,Cortisol,cortisol; week 10 (overreaching),18.6 ± 1.2 µg/dL
same,Cortisol,cortisol; week 12,17.4 ± 1.2 µg/dL
same,effect on total testosterone,total testosterone,no main effect differences
same,Total Testosterone,total testosterone; week 0 (baseline),708 ± 35 ng/dL
same,Total Testosterone,total testosterone; week 1,708 ± 48 ng/dL
same,Total Testosterone,total testosterone; week 4,730 ± 63 ng/dL
same,Total Testosterone,total testosterone; week 8,652 ± 35 ng/dL
same,Total Testosterone,total testosterone; week 9 (overreaching),752 ± 61 ng/dL
same,Total Testosterone,total testosterone; week 10 (overreaching),701 ± 34 ng/dL
same,Total Testosterone,total testosterone; week 12,728 ± 39 ng/dL
same,Wingate PP gains in power from baseline,resistance-trained males [1],10.2±1.6%
same,Wingate PP decrease,resistance-trained males [1],0.3±0.9%
same,12-week increases in quadriceps thicknesses,resistance-trained males [2],7.1±1.2 mm
same,Quad (quadriceps muscle thickness),resistance-trained males [2]; week 0 (baseline),50.7 ± 1.5 mm
same,Quad (quadriceps muscle thickness),resistance-trained males [2]; week 4,53.6 ± 1.4 mm
same,Quad (quadriceps muscle thickness),resistance-trained males [2]; week 8,56.0 ± 1.4 mm
same,Quad (quadriceps muscle thickness),resistance-trained males [2]; week 12,57.8 ± 1.6 mm
same,Lean body mass increase,resistance-trained males [3]; 12-week study,7.4 ± 0.4 kg
same,fat percentage decrease,resistance-trained males [3]; 12-week study,7.0±0.6%
same,DXA Fat,resistance-trained males [3]; week 0 (baseline),20.4 ± 1.4%
same,DXA LBM,resistance-trained males [3]; week 0 (baseline),66.2 ± 2.6 kg
same,Weight,resistance-trained males [3]; week 0 (baseline),83.1 ± 2.8 kg
same,DXA Fat,resistance-trained males [3]; week 4,17.6 ± 1.4%
same,DXA LBM,resistance-trained males [3]; week 4,69.2 ± 2.7 kg
same,Weight,resistance-trained males [3]; week 4,83.9 ± 2.8 kg
same,DXA Fat,resistance-trained males [3]; week 8,15.9 ± 1.5 %
same,DXA LBM,resistance-trained males [3]; week 8,71.3 ± 2.7 kg
same,Weight,resistance-trained males [3]; week 8,84.8 ± 2.9 kg
same,DXA Fat,resistance-trained males [3]; week 12,13.5 ± 1.5 %
same,DXA LBM,resistance-trained males [3]; week 12,73.5 ± 2.7 kg
same,Weight,resistance-trained males [3]; week 12,85.0 ± 3.0 kg
same,24 h 3MH:Cr,urinary 3-MH:Cr ratio; week 0 (baseline),0.127 ± 0.004 μmol:mg
same,24 h 3MH:Cr,urinary 3-MH:Cr ratio; week 1,0.122 ± 0.002 μmol:mg
same,24 h 3MH:Cr,urinary 3-MH:Cr ratio; week 8,0.124 ± 0.008 μmol:mg
same,24 h 3MH:Cr,urinary 3-MH:Cr ratio; week 9 (overreaching),0.120 ± 0.003 μmol:mg
same,24 h 3MH:Cr,urinary 3-MH:Cr ratio; week 10 (overreaching),0.141 ± 0.004 μmol:mg
"Nc1ncnc2c1ncn2[C@@H]1O[C@H](COP(=O)(O)OP(=O)(O)OP(=O)(O)O)[C@@H](O)[C@H]1O [ATP, Adenosine-5′-triphosphate]",effect on training-induced increase in CK,creatine kinase (CK),did not attenuate the increases in CK
same,CK,creatine kinase (CK); week 0 (baseline),145 ± 8 IU/L
same,CK,creatine kinase (CK); week 1,500 ± 71 IU/L
same,CK,creatine kinase (CK); week 4,324 ± 14 IU/L
same,CK,creatine kinase (CK); week 8,234 ± 32 IU/L
same,CK,creatine kinase (CK); week 9 (overreaching),426 ± 44 IU/L
same,CK,creatine kinase (CK); week 10 (overreaching),449 ± 62 IU/L
same,CK,creatine kinase (CK); week 12,160 ± 20 IU/L
same,effect on cortisol levels,cortisol,did not affect cortisol levels
same,Cortisol,cortisol; week 0 (baseline),20.9 ± 1.2 µg/dL
same,Cortisol,cortisol; week 1,20.5 ± 1.3 µg/dL
same,Cortisol,cortisol; week 4,18.4 ± 1.4 µg/dL
same,Cortisol,cortisol; week 8,19.0 ± 0.4 µg/dL
same,Cortisol,cortisol; week 9 (overreaching),21.5 ± 0.4 µg/dL
same,Cortisol,cortisol; week 10 (overreaching),22.6 ± 0.2 µg/dL
same,Cortisol,cortisol; week 12,19.7 ± 0.6 µg/dL
same,effect on total testosterone,total testosterone,no main effect differences
same,Total Testosterone,total testosterone; week 0 (baseline),660 ± 67 ng/dL
same,Total Testosterone,total testosterone; week 1,645 ± 54 ng/dL
same,Total Testosterone,total testosterone; week 4,695 ± 60 ng/dL
same,Total Testosterone,total testosterone; week 8,645 ± 60 ng/dL
same,Total Testosterone,total testosterone; week 9 (overreaching),621 ± 49 ng/dL
same,Total Testosterone,total testosterone; week 10 (overreaching),592 ± 84 ng/dL
same,Total Testosterone,total testosterone; week 12,673 ± 69 ng/dL
same,Wingate PP gains in power from baseline,resistance-trained males [1],9.0±1.6%
same,Wingate PP decrease,resistance-trained males [1],2.9±0.7%
same,12-week increases in quadriceps thicknesses,resistance-trained males [2],4.9±1.0 mm
same,Quad (quadriceps muscle thickness),resistance-trained males [2]; week 0 (baseline),50.9 ± 0.9 mm
same,Quad (quadriceps muscle thickness),resistance-trained males [2]; week 4,53.4 ± 1.3 mm
same,Quad (quadriceps muscle thickness),resistance-trained males [2]; week 8,54.8 ± 1.7 mm
same,Quad (quadriceps muscle thickness),resistance-trained males [2]; week 12,55.8 ± 1.8 mm
same,Lean body mass increase,resistance-trained males [3]; 12-week study,4.0 ± 0.4 kg
same,DXA Fat,resistance-trained males [3]; week 0 (baseline),19.5 ± 1.8%
same,DXA LBM,resistance-trained males [3]; week 0 (baseline),67.7 ± 2.0 kg
same,Weight,resistance-trained males [3]; week 0 (baseline),85.7 ± 1.7 kg
same,DXA Fat,resistance-trained males [3]; week 4,18.1 ± 1.8%
same,DXA LBM,resistance-trained males [3]; week 4,70.1 ± 1.9 kg
same,Weight,resistance-trained males [3]; week 4,86.9 ± 2.0 kg
same,DXA Fat,resistance-trained males [3]; week 8,16.6 ± 1.6%
same,DXA LBM,resistance-trained males [3]; week 8,71.4 ± 2.0 kg
same,Weight,resistance-trained males [3]; week 8,87.0 ± 2.0 kg
same,DXA Fat,resistance-trained males [3]; week 12,16.0 ± 1.5%
same,DXA LBM,resistance-trained males [3]; week 12,71.7 ± 1.9 kg
same,Weight,resistance-trained males [3]; week 12,87.0 ± 2.1 kg
same,24 h 3MH:Cr,urinary 3-MH:Cr ratio; week 0 (baseline),0.136 ± 0.008 μmol:mg
same,24 h 3MH:Cr,urinary 3-MH:Cr ratio; week 1,0.127 ± 0.007 μmol:mg
same,24 h 3MH:Cr,urinary 3-MH:Cr ratio; week 8,0.143 ± 0.007 μmol:mg
same,24 h 3MH:Cr,urinary 3-MH:Cr ratio; week 9 (overreaching),0.143 ± 0.008 μmol:mg
same,24 h 3MH:Cr,urinary 3-MH:Cr ratio; week 10 (overreaching),0.131 ± 0.012 μmol:mg
